Data: the NIST ThermoML archive (doi:10.1016/j.tca.2009.10.001)
Numbers after ± are expanded uncertainties.

Key:
[1] = xn = mol fraction of the nth substance listed; details: 101 kPa, Liquid, x1 = 1; for viscosity: Capillary tube (Ostwald / Ubbelohde) method; for speed of sound: Linear variable-path acoustic interferometer; for mass density: Pycnometric method
[2] = Liquid; for viscosity: Capillary tube (Ostwald / Ubbelohde) method; for speed of sound: Linear variable-path acoustic interferometer; for mass density: Pycnometric method

Row | SMILES | viscosity ([1]; 298.15 K) [mPa·s] | speed of sound ([1]; 298.15 K) [m/s] | mass density ([1]; 298.15 K) [kg/m3] | viscosity ([1]; 303.15 K) [mPa·s] | speed of sound ([1]; 303.15 K) [m/s] | mass density ([1]; 303.15 K) [kg/m3] | viscosity ([1]; 308.15 K) [mPa·s] | speed of sound ([1]; 308.15 K) [m/s] | mass density ([1]; 308.15 K) [kg/m3] | viscosity ([2]; 298.15 K, 101.33 kPa) [mPa·s] | speed of sound ([2]; 298.15 K, 101.33 kPa) [m/s] | mass density ([2]; 298.15 K, 101.33 kPa) [kg/m3] | viscosity ([2]; 303.15 K, 101.33 kPa) [mPa·s] | speed of sound ([2]; 303.15 K, 101.33 kPa) [m/s] | mass density ([2]; 303.15 K, 101.33 kPa) [kg/m3] | viscosity ([2]; 308.15 K, 101.33 kPa) [mPa·s] | speed of sound ([2]; 308.15 K, 101.33 kPa) [m/s] | mass density ([2]; 308.15 K, 101.33 kPa) [kg/m3] | also measured
1 | Cc1ccccc1 [toluene] + CC#N | 0.5635 ± 0.0056 | 1299.8 ± 1.5 | 860.9 ± 0.3 | 0.5344 ± 0.0055 | 1279.5 ± 1.5 | 856 ± 0.3 | 0.5091 ± 0.0054 | 1260.7 ± 1.5 | 851.6 ± 0.3 | – | – | – | – | – | – | – | – | – | –
2 | Cc1ccccc1 [toluene] | – | – | – | – | – | – | – | – | – | – | – | – | – | – | – | – | – | – | viscosity ([2]; 298.15 K, 101 kPa): 0.5635 ± 0.0056 mPa·s; speed of sound ([2]; 298.15 K, 101 kPa): 1299.8 ± 1.5 m/s; mass density ([2]; 298.15 K, 101 kPa): 860.9 ± 0.3 kg/m3; viscosity ([2]; 303.15 K, 101 kPa): 0.5344 ± 0.0055 mPa·s; speed of sound ([2]; 303.15 K, 101 kPa): 1279.5 ± 1.5 m/s; mass density ([2]; 303.15 K, 101 kPa): 856 ± 0.3 kg/m3; viscosity ([2]; 308.15 K, 101 kPa): 0.5091 ± 0.0054 mPa·s; speed of sound ([2]; 308.15 K, 101 kPa): 1260.7 ± 1.5 m/s; mass density ([2]; 308.15 K, 101 kPa): 851.6 ± 0.3 kg/m3
3 | CCC#N [propanenitrile] | – | – | – | – | – | – | – | – | – | 0.4107 ± 0.0055 | 1252.4 ± 1.8 | 775.4 ± 0.3 | 0.3991 ± 0.0054 | 1232.7 ± 1.7 | 769.9 ± 0.3 | 0.3822 ± 0.0053 | 1213.7 ± 1.7 | 765.2 ± 0.4 | –
4 | CC#N [acetonitrile] | – | – | – | – | – | – | – | – | – | 0.3696 ± 0.0053 | 1271.3 ± 1.8 | 775.3 ± 0.3 | 0.3554 ± 0.0052 | 1251.9 ± 1.8 | 769.9 ± 0.3 | 0.3414 ± 0.0052 | 1231.7 ± 1.7 | 764.7 ± 0.4 | –
5 | Cc1ccccc1 [toluene] + CCCC#N | 0.5635 ± 0.0056 | 1299.8 ± 1.5 | 860.9 ± 0.3 | 0.5344 ± 0.0055 | 1279.5 ± 1.5 | 856 ± 0.3 | 0.5091 ± 0.0054 | 1260.7 ± 1.5 | 851.6 ± 0.3 | – | – | – | – | – | – | – | – | – | –
6 | CCCC#N [butanenitrile] | – | – | – | – | – | – | – | – | – | 0.5463 ± 0.0061 | 1271.4 ± 1.8 | 784.7 ± 0.3 | 0.5255 ± 0.006 | 1252.2 ± 1.8 | 780.3 ± 0.4 | 0.5049 ± 0.0059 | 1233.9 ± 1.7 | 775.9 ± 0.4 | –
7 | Cc1ccccc1 [toluene] + CCC#N | 0.5635 ± 0.0056 | 1299.8 ± 1.5 | 860.9 ± 0.3 | 0.5344 ± 0.0055 | 1279.5 ± 1.5 | 856 ± 0.3 | 0.5091 ± 0.0054 | 1260.7 ± 1.5 | 851.6 ± 0.3 | – | – | – | – | – | – | – | – | – | –
